Reference: PubChem BioAssay AID328 (DTP/NCI, 2004)
Values joined by “and” are separate entries in the source; they are usually repeats but may differ in a detail not shown here. Identical values can stand only once. Toxic doses and inconclusive results are not listed. Rule for the calls: active = survival T/C of 150% or more; inactive = T/C below 125% in these data.

Tested on: BDF1 mice, P388 leukemia ip, median survival T/C
Test: NCI In Vivo Anticancer Drug Screen. Data for tumor model P388 Leukemia (intraperitoneal) in B6D2F1 (BDF1) mice
Conditions: endpoint: median survival time, higher = longer survival
Procedure, shortened: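 Each value expresses how treatment altered survival: treated-mouse outcome over vehicle-mouse outcome, both groups bearing the transplanted tumour.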

[1] = dose: 50.0 mg/kg/injection, schedule: Q04DX003 (ip), vehicle: saline
[2] = dose: 100.0 mg/kg/injection, schedule: Q04DX003 (ip), vehicle: saline
[3] = dose: 200.0 mg/kg/injection, schedule: Q04DX003 (ip), vehicle: saline
[4] = dose: 25.0 mg/kg/injection, schedule: Q01DX009 (ip), vehicle: saline
[5] = dose: 50.0 mg/kg/injection, schedule: Q01DX009 (ip), vehicle: saline
[6] = dose: 100.0 mg/kg/injection, schedule: Q01DX009 (ip), vehicle: saline
[7] = dose: 25.0 mg/kg/injection, schedule: Q01DX009 (ip), vehicle: saline with Tween-80
[8] = dose: 50.0 mg/kg/injection, schedule: Q01DX009 (ip), vehicle: saline with Tween-80
[9] = dose: 50.0 mg/kg/injection, schedule: Q04DX003 (ip), vehicle: Klucel (hydroxypropylcellulose) (HPC)
[10] = dose: 100.0 mg/kg/injection, schedule: Q04DX003 (ip), vehicle: Klucel (hydroxypropylcellulose) (HPC)
[11] = dose: 200.0 mg/kg/injection, schedule: Q04DX003 (ip), vehicle: Klucel (hydroxypropylcellulose) (HPC)
[12] = dose: 132.0 mg/kg/injection, schedule: Q04DX003 (ip), vehicle: saline
[13] = dose: 300.0 mg/kg/injection, schedule: Q04DX003 (ip), vehicle: saline
[14] = dose: 1.56 mg/kg/injection, schedule: Q01DX009 (ip), vehicle: saline
[15] = dose: 200.0 mg/kg/injection, schedule: Q01DX009 (ip), vehicle: saline
[16] = dose: 100.0 mg/kg/injection, schedule: Q01DX009 (ip), vehicle: saline with Tween-80
[17] = dose: 200.0 mg/kg/injection, schedule: Q01DX009 (ip), vehicle: saline with Tween-80

Measured: T/C

CCCCN1CCNCC1
inactive: [1] 95 % of control | [2] 100 % of control | [3] 100 % of control

CC1(C)CC(=O)c2ccccc21
inactive: [4] 99 % of control | [5] 115 % of control | [1] 102 % of control | [6] 95 % of control | [2] 100 % of control | [3] 109 % of control

COc1ccc(S(=O)(=O)Nc2c([N+](=O)[O-])cc([N+](=O)[O-])c3ccccc23)cc1
inactive: [7] 102 % of control | [8] 100 % of control

Cc1cc(C)c(CCc2cc(C)c(C)cc2C)cc1C
inactive: [9] 95 % of control | [10] 91 % of control | [11] 87 % of control and 108 % of control

O=C(O)CC(O)(CC(=O)O)C(=O)O.[Ga]
inactive: dose: 75.0 mg/kg/injection, schedule: Q01DX009 (ip), vehicle: saline 114 % of control | dose: 112.5 mg/kg/injection, schedule: Q01DX009 (ip), vehicle: saline 90 % of control | [12] 115 % of control | [3] 110 % of control | [13] 110 % of control

CCCCOB(CI)OCCCC
inactive: [14] 95 % of control | dose: 3.13 mg/kg/injection, schedule: Q01DX009 (ip), vehicle: saline 109 % of control | dose: 6.25 mg/kg/injection, schedule: Q01DX009 (ip), vehicle: saline 89 % of control and 109 % of control

Cc1cccc(N=P(c2ccccc2)(c2ccccc2)c2ccccc2)c1
inactive: dose: 50.0 mg/kg/injection, schedule: Q01DX009 (ip), vehicle: Klucel (hydroxypropylcellulose) (HPC) 109 % of control | [9] 109 % of control | dose: 100.0 mg/kg/injection, schedule: Q01DX009 (ip), vehicle: Klucel (hydroxypropylcellulose) (HPC) 118 % of control | [10] 100 % of control | dose: 133.0 mg/kg/injection, schedule: Q01DX009 (ip), vehicle: Klucel (hydroxypropylcellulose) (HPC) 117 % of control | dose: 200.0 mg/kg/injection, schedule: Q01DX009 (ip), vehicle: Klucel (hydroxypropylcellulose) (HPC) 108 % of control | [11] 95 % of control

CCCCCCC(C)NN (stereo not drawn)
inactive: dose: 12.5 mg/kg/injection, schedule: Q04DX003 (ip), vehicle: saline 98 % of control | dose: 25.0 mg/kg/injection, schedule: Q04DX003 (ip), vehicle: saline 105 % of control | [1] 107 % of control

COC(=O)c1cc(=O)n(-c2ccccc2F)c(SC)n1
inactive: [10] 116 % of control

CCCCCCCCCCCCCC[n+]1ccccc1
inactive: dose: 16.0 micrograms/kg/injection, schedule: Q01DX009 (ip), vehicle: saline with Tween-80 87 % of control | dose: 32.0 micrograms/kg/injection, schedule: Q01DX009 (ip), vehicle: saline with Tween-80 100 % of control | dose: 62.5 micrograms/kg/injection, schedule: Q01DX009 (ip), vehicle: saline 113 % of control | dose: 62.5 micrograms/kg/injection, schedule: Q01DX010 (ip), vehicle: saline 115 % of control | dose: 125.0 micrograms/kg/injection, schedule: Q01DX009 (ip), vehicle: saline 122 % of control | dose: 250.0 micrograms/kg/injection, schedule: Q01DX010 (ip), vehicle: saline 110 % of control

C#CCOCC1CN(C)C(=O)O1 (stereo not drawn)
inactive: [4] 104 % of control | [5] 100 % of control | [1] 91 % of control | [6] 100 % of control | [15] 100 % of control | [3] 100 % of control

CC1(c2ccccc2)O[C@@H]2C[C@H]3[C@@H]4CCC5=CC(=O)C=C[C@]5(C)[C@@]4(F)[C@@H](O)C[C@]3(C)[C@]2(C(=O)CO)O1 (stereo partly drawn)
inactive: [5] 100 % of control | [6] 100 % of control | [12] 90 % of control and 95 % of control (2×) | [3] 86 % of control and 95 % of control and 100 % of control | [13] 105 % of control | dose: 400.0 mg/kg/injection, schedule: Q04DX003 (ip), vehicle: alcohol 105 % of control

Cc1cccc(C(=O)O)[n+]1[O-]
inactive: [16] 95 % of control | [17] 90 % of control | dose: 400.0 mg/kg/injection, schedule: Q01DX009 (ip), vehicle: saline with Tween-80 90 % of control

COc1ccc(/C=C2\CCCC3=C2N=C2SCC(=O)N2C3c2ccc(OC)cc2)cc1 (stereo not drawn)
inactive: dose: 100.0 mg/kg/injection, schedule: Q04DX003 (ip), vehicle: saline with Tween-80 90 % of control | dose: 400.0 mg/kg/injection, schedule: Q04DX003 (ip), vehicle: saline with Tween-80 90 % of control

Oc1c(Br)ccc2c(O)c(Br)ccc12
inactive: dose: 132.0 mg/kg/injection, schedule: Q04DX003 (ip), vehicle: saline with Tween-80 109 % of control | dose: 200.0 mg/kg/injection, schedule: Q04DX003 (ip), vehicle: saline with Tween-80 114 % of control | dose: 300.0 mg/kg/injection, schedule: Q04DX003 (ip), vehicle: saline with Tween-80 95 % of control

O=C(O)CCCC1CCC(=O)CC1
inactive: [5] 90 % of control | dose: 100.0 mg/kg/injection, schedule: Q01DX001 (ip), vehicle: other 95 % of control | [6] 90 % of control | [2] 104 % of control | dose: 200.0 mg/kg/injection, schedule: Q01DX001 (ip), vehicle: other 104 % of control | [15] 110 % of control | [3] 104 % of control | dose: 400.0 mg/kg/injection, schedule: Q01DX001 (ip), vehicle: other 120 % of control | dose: 400.0 mg/kg/injection, schedule: Q01DX009 (ip), vehicle: saline 110 % of control | dose: 400.0 mg/kg/injection, schedule: Q04DX003 (ip), vehicle: saline 109 % of control

O=C1OC(=O)C2C3CCC(O3)C12 (stereo not drawn)
inactive: dose: 0.39 mg/kg/injection, schedule: Q04DX003 (ip), vehicle: saline 100 % of control | dose: 0.65 mg/kg/injection, schedule: Q01DX001 (ip), vehicle: saline 104 % of control | dose: 0.78 mg/kg/injection, schedule: Q01DX009 (ip), vehicle: saline 105 % of control | dose: 0.78 mg/kg/injection, schedule: Q04DX003 (ip), vehicle: saline 100 % of control | dose: 1.31 mg/kg/injection, schedule: Q01DX001 (ip), vehicle: saline 100 % of control | [14] 100 % of control | dose: 1.56 mg/kg/injection, schedule: Q04DX003 (ip), vehicle: saline 100 % of control | dose: 2.3 mg/kg/injection, schedule: Q04DX003 (ip), vehicle: saline 110 % of control | dose: 2.62 mg/kg/injection, schedule: Q01DX001 (ip), vehicle: saline 100 % of control | dose: 3.5 mg/kg/injection, schedule: Q04DX003 (ip), vehicle: saline 115 % of control | dose: 5.2 mg/kg/injection, schedule: Q04DX003 (ip), vehicle: saline 100 % of control | dose: 5.25 mg/kg/injection, schedule: Q01DX001 (ip), vehicle: Klucel (hydroxypropylcellulose) (HPC) 91 % of control | dose: 5.25 mg/kg/injection, schedule: Q01DX001 (ip), vehicle: saline 95 % of control | dose: 7.2 mg/kg/injection, schedule: Q04DX003 (ip), vehicle: saline 100 % of control | dose: 21.0 mg/kg/injection, schedule: Q01DX001 (ip), vehicle: Klucel (hydroxypropylcellulose) (HPC) 87 % of control

O=C1c2cccnc2C(=O)c2c(O)ccc(O)c21
inactive: [7] 97 % of control | [8] 99 % of control | [16] 92 % of control | [17] 115 % of control
